# Target: T1, recombinant human Myt1 (full length PKMYT1) (Homo sapiens, UniProt Q99640)
# T1 sequence (Q99640 1-499): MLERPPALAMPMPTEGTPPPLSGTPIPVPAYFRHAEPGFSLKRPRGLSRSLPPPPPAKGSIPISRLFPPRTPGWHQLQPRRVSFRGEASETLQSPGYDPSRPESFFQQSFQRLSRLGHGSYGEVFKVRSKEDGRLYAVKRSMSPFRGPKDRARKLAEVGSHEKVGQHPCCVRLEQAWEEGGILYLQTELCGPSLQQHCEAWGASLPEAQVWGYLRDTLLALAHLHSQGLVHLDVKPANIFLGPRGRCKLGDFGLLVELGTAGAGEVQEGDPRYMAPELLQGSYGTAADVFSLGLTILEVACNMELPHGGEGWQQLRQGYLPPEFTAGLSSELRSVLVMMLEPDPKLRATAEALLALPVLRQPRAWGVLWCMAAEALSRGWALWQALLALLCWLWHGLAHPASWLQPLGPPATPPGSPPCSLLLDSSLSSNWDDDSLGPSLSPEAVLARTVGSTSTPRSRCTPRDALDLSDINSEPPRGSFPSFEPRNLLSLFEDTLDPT
# Experiment: ADP-Glo assay (Myt1 kinase activity)
row,SMILES,IC50 [nM]
1,"Cc1c(C2CCC2)cnc2c(-c3ccc(F)c4[nH]ncc34)c(N)c(=O)[nH]c12 [Example 119, 3-Amino-7-cyclobutyl-4-(7-fluoro-1H-indazol-4-yl)-8-methyl-1H-1,5-naphthyridin-2-one]",13
2,"Cc1c(-c2nccs2)cnc2c(-c3ccc(F)c4[nH]ncc34)c(N)c(=O)[nH]c12 [Example 121, 3-Amino-4-(7-fluoro-1H-indazol-4-yl)-8-methyl-7-thiazol-2-yl-1H-1,5-naphthyridin-2-one]",10.7
3,"Cc1c(C2(C)CC2)cnc2c(-c3ccc(F)c4[nH]ncc34)c(N)c(=O)[nH]c12 [Example 129, 3-Amino-4-(7-fluoro-1H-indazol-4-yl)-8-methyl-7-(1-methylcyclopropyl)-1H-1,5-naphthyridin-2-one]",12.8
4,"Cc1c(C2CC2(C)C)cnc2c(-c3ccc(F)c4[nH]ncc34)c(N)c(=O)[nH]c12 (stereo not drawn) [Example 130, 3-Amino-7-(2,2-dimethylcyclopropyl)-4-(7-fluoro-1H-indazol-4-yl)-8-methyl-1H-1,5-naphthyridin-2-one]",12.3
5,"Cc1c(CC2CC2)cnc2c(-c3ccc(F)c4[nH]ncc34)c(N)c(=O)[nH]c12 [Example 131, 3-Amino-7-(cyclopropylmethyl)-4-(7-fluoro-1H-indazol-4-yl)-8-methyl-1H-1,5-naphthyridin-2-one]",17.5
6,"Cc1c(F)cnc2c(-c3ccc(F)c4[nH]ncc34)c(N)c(=O)[nH]c12 [Example 135, 3-Amino-7-fluoro-4-(7-fluoro-1H-indazol-4-yl)-8-methyl-1H-1,5-naphthyridin-2-one]",14
7,"Cc1c(OCC(F)(F)F)cnc2c(-c3ccc(F)c4[nH]ncc34)c(N)c(=O)[nH]c12 [Example 137, 3-Amino-4-(7-fluoro-1H-indazol-4-yl)-8-methyl-7-(2,2,2-trifluoroethoxy)-1H-1,5-naphthyridin-2-one]",14.1
8,"Cc1c(OC(C)C)cnc2c(-c3ccc(F)c4[nH]ncc34)c(N)c(=O)[nH]c12 [Example 138, 3-Amino-4-(7-fluoro-1H-indazol-4-yl)-7-isopropoxy-8-methyl-1H-1,5-naphthyridin-2-one]",14.2
9,"Cc1c(OC2CCC2)cnc2c(-c3ccc(F)c4[nH]ncc34)c(N)c(=O)[nH]c12 [Example 139, 3-Amino-7-(cyclobutoxy)-4-(7-fluoro-1H-indazol-4-yl)-8-methyl-1H-1,5-naphthyridin-2-one]",13.2
10,"CCOc1cnc2c(-c3ccc(F)c4[nH]ncc34)c(N)c(=O)[nH]c2c1C [Example 140, 3-Amino-7-ethoxy-4-(7-fluoro-1H-indazol-4-yl)-8-methyl-1H-1,5-naphthyridin-2-one]",11.8
11,"CSc1cnc2c(-c3ccc(F)c4[nH]ncc34)c(N)c(=O)[nH]c2c1C [Example 141, 3-Amino-4-(7-fluoro-1H-indazol-4-yl)-8-methyl-7-methylsulfanyl-1H-1,5-naphthyridin-2-one]",10.4
12,"Cc1cnc2c(-c3ccc(F)c4[nH]ncc34)c(N)c(=O)[nH]c2c1C(F)F [Example 145, 3-Amino-8-(difluoromethyl)-4-(7-fluoro-1H-indazol-4-yl)-7-methyl-1H-1,5-naphthyridin-2-one]",18.5
13,"Cc1cc(C#CC2COC2)nc2c(-c3ccc(F)c4[nH]ncc34)c(N)c(=O)[nH]c12 [Example 150, 3-Amino-4-(7-fluoro-1H-indazol-4-yl)-8-methyl-6-[2-(oxetan-3-yl)ethynyl]-1H-1,5-naphthyridin-2-one]",15.2
14,"Cc1cc2[nH]c(=O)c(N)c(-c3ccc(F)c4[nH]ncc34)c2nc1-c1cccs1 [Example 151, 3-Amino-4-(7-fluoro-1H-indazol-4-yl)-7-methyl-6-(2-thienyl)-1H-1,5-naphthyridin-2-one]",13
15,"Cc1cc2[nH]c(=O)c(N)c(-c3ccc(F)c4[nH]ncc34)c2nc1-c1cscn1 [Example 152, 3-Amino-4-(7-fluoro-1H-indazol-4-yl)-7-methyl-6-thiazol-4-yl-1H-1,5-naphthyridin-2-one]",13.8
16,"Cc1cc2[nH]c(=O)c(N)c(-c3ccc(F)c4[nH]ncc34)c2nc1-c1nccs1 [Example 153, 3-Amino-4-(7-fluoro-1H-indazol-4-yl)-7-methyl-6-thiazol-2-yl-1H-1,5-naphthyridin-2-one]",11.8
17,"Cc1cc2[nH]c(=O)c(N)c(-c3ccc(F)c4[nH]ncc34)c2nc1-c1ccccn1 [Example 155, 3-Amino-4-(7-fluoro-1H-indazol-4-yl)-7-methyl-6-(2-pyridyl)-1H-1,5-naphthyridin-2-one]",14.7
18,"CCc1nc2c(-c3ccc(F)c4[nH]ncc34)c(N)c(=O)[nH]c2cc1C [Example 157, 3-Amino-6-ethyl-4-(7-fluoro-1H-indazol-4-yl)-7-methyl-1H-1,5-naphthyridin-2-one]",15.6
19,"Nc1c(-c2ccc(F)c3[nH]ncc23)c2c(OC(F)F)nc(C3CC3)cc2[nH]c1=O [Example 168, 3-Amino-7-cyclopropyl-5-(difluoromethoxy)-4-(7-fluoro-1H-indazol-4-yl)-1H-1,6-naphthyridin-2-one]",11.2
20,"COc1nc(C2CC2)cc2[nH]c(=O)c(N)c(-c3ccc(F)c4[nH]ncc34)c12 [Example 169, 3-Amino-7-cyclopropyl-4-(7-fluoro-1H-indazol-4-yl)-5-methoxy-1H-1,6-naphthyridin-2-one]",13.4
21,"COc1ncc(F)c2[nH]c(=O)c(N)c(-c3ccc(F)c4[nH]ncc34)c12 [Example 170, 3-amino-8-fluoro-4-(7-fluoro-1H-indazol-4-yl)-5-methoxy-1H-1,6-naphthyridin-2-one]",12.6
22,"COc1ncc(Cl)c2[nH]c(=O)c(N)c(-c3ccc(F)c4[nH]ncc34)c12 [Example 171, 3-Amino-8-chloro-4-(7-fluoro-1H-indazol-4-yl)-5-methoxy-1H-1,6-naphthyridin-2-one]",15.8
23,"COc1c(C)nc(C)c2[nH]c(=O)c(N)c(-c3ccc(F)c4[nH]ncc34)c12 [Example 174, 3-Amino-4-(7-fluoro-1H-indazol-4-yl)-5-methoxy-6,8-dimethyl-1H-1,7-naphthyridin-2-one]",12.7
24,"Cc1nc(Cl)cc2c(-c3ccc(F)c4[nH]ncc34)c(N)c(=O)[nH]c12 [Example 175, 3-Amino-6-chloro-4-(7-fluoro-1H-indazol-4-yl)-8-methyl-1H-1,7-naphthyridin-2-one]",< 10

# Other lines, results leading:
row,IC50 [nM],SMILES
1,< 10,"Cc1c(Br)cnc2c(-c3ccc(F)c4[nH]ncc34)c(N)c(=O)[nH]c12 [Example 115, 3-Amino-7-bromo-4-(7-fluoro-1H-indazol-4-yl)-8-methyl-1H-1,5-naphthyridin-2-one]"
2,< 10,"Cc1c(I)cnc2c(-c3ccc(F)c4[nH]ncc34)c(N)c(=O)[nH]c12 [Example 116, 3-Amino-4-(7-fluoro-1H-indazol-4-yl)-7-iodo-8-methyl-1H-1,5-naphthyridin-2-one]"
3,< 10,"C=Cc1cnc2c(-c3ccc(F)c4[nH]ncc34)c(N)c(=O)[nH]c2c1C [Example 123, 3-Amino-4-(7-fluoro-1H-indazol-4-yl)-8-methyl-7-vinyl-1H-1,5-naphthyridin-2-one]"
4,< 10,"C=C(C)c1cnc2c(-c3ccc(F)c4[nH]ncc34)c(N)c(=O)[nH]c2c1C [Example 125, 3-Amino-4-(7-fluoro-1H-indazol-4-yl)-7-isopropenyl-8-methyl-1H-1,5-naphthyridin-2-one]"
5,< 10,"Cc1c(C2CCCC2)cnc2c(-c3ccc(F)c4[nH]ncc34)c(N)c(=O)[nH]c12 [Example 126, 3-Amino-7-cyclopentyl-4-(7-fluoro-1H-indazol-4-yl)-8-methyl-1H-1,5-naphthyridin-2-one]"
6,< 10,"Cc1c(C2CC2F)cnc2c(-c3ccc(F)c4[nH]ncc34)c(N)c(=O)[nH]c12 (stereo not drawn) [Example 132, 3-Amino-7-(2-fluorocyclopropyl)-4-(7-fluoro-1H-indazol-4-yl)-8-methyl-1H-1,5-naphthyridin-2-one]"
7,< 10,"Cc1cc(C#CC(C)(C)O)nc2c(-c3ccc(F)c4[nH]ncc34)c(N)c(=O)[nH]c12 [Example 148, 3-Amino-4-(7-fluoro-1H-indazol-4-yl)-6-(3-hydroxy-3-methyl-but-1-ynyl)-8-methyl-1H-1,5-naphthyridin-2-one]"
8,< 10,"COC(C)(C)C#Cc1cc(C)c2[nH]c(=O)c(N)c(-c3ccc(F)c4[nH]ncc34)c2n1 [Example 149, 3-Amino-4-(7-fluoro-1H-indazol-4-yl)-6-(3-methoxy-3-methyl-but-1-ynyl)-8-methyl-1H-1,5-naphthyridin-2-one]"
9,< 10,"Cc1cc2[nH]c(=O)c(N)c(-c3ccc(F)c4[nH]ncc34)c2nc1-c1ncco1 [Example 154, 3-Amino-4-(7-fluoro-1H-indazol-4-yl)-7-methyl-6-oxazol-2-yl-1H-1,5-naphthyridin-2-one]"
10,< 10,"Cc1cc2[nH]c(=O)c(N)c(-c3ccc(Cl)c4[nH]ncc34)c2nc1C [Example 159, 3-Amino-4-(7-chloro-1H-indazol-4-yl)-6,7-dimethyl-1H-1,5-naphthyridin-2-one]"
11,< 10,"Cc1c(C2CC2)nc(Cl)c2c(-c3ccc(F)c4[nH]ncc34)c(N)c(=O)[nH]c12 [Example 162, 3-Amino-5-chloro-7-cyclopropyl-4-(7-fluoro-1H-indazol-4-yl)-8-methyl-1H-1,6-naphthyridin-2-one]"
12,< 10,"Cc1c(C2CC2)ncc2c(-c3ccc(F)c4[nH]ncc34)c(N)c(=O)[nH]c12 [Example 165, 3-amino-7-cyclopropyl-4-(7-fluoro-1H-indazol-4-yl)-8-methyl-1H-1,6-naphthyridin-2-one]"
